The source of these data is patent publication US5171882A, “Leukotriene antagonists” (Eli Lilly and Company, priority 1990, dated 1992).

For one assay, the target named is T1, LTD4 receptors (Cavia porcellus, UniProt Q2NNR5).
T1 construct: A section of terminal ileum was removed, the lumen cleaned, and the tissue divided into 2.5 cm segments; from tissue; host or cells: ileum and trachea of guinea pig (ileum: male Hartley)
T1 sequence (Q2NNR5 1-340): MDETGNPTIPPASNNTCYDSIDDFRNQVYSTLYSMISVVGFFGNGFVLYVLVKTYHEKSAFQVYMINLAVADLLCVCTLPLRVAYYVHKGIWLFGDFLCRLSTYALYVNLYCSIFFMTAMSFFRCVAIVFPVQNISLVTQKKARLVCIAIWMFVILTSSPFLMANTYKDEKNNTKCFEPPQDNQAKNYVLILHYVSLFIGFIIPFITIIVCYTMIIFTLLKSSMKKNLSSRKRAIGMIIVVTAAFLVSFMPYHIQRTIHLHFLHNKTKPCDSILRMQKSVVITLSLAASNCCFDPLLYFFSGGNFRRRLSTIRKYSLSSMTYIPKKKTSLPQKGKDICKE
Kind of assay: Antagonism of LTD4 (guinea pig ileum and trachea, pA2). The following applies: *Estimated; negative log of KB; antagonist 30 minute incubation. As to the method:
Male, Hartley guinea pigs weighing 200-450 grams were killed by decapitation. A section of terminal ileum was removed, the lumen cleaned, and the tissue divided into 2.5 cm segments. The ilea were mounted in 10 ml tissue baths containing Krebs-bicarbonate solution of the following composition in mmoles/liter: KCl, 4.6; CaCl2 ·2H2 O, 1.2; KH2 PO4, 1.2; MgSO4 ·7H2O, 1.2; NaCl, 118.2; NaHCO3, 24.8; and dextrose, 10.0. The bath fluid was maintained at 37° C. and aerated with 95 percent oxygen and 5 percent CO2 In addition, the buffer contained 1×10^-6 M atropine to reduce ileal spontaneous activity. Isometric measurements were made with a Grass FT03C. force-displacement transducer and recorded on a Grass polygraph as change in grams of force. A passive force of 0.5 g was applied to the tissues. After an appropriate equilibration period, single submaximal control responses to pure LTD4 were obtained. Following a five minute exposure of the ileum to an experimental drug, the control concentration of LTD4 was added to the tissue bath. The response of the ileum to LTD4 in the presence of the drug was compared to the response in the absence of the drug.
A more detailed analysis of LTD4 antagonism was then made. In these experiments, cumulative concentration-response curves were obtained to LTD4 in guinea pig ileum and trachea. This was followed by a 30 minute incubation with various concentrations of the experimental drug. The concentration response curve to LTD4 was then repeated in the presence of the antagonist. Only one concentration of antagonist was used on a single tissue. KB values were calculated by the method of Furchgott [Ann. N.Y. Acad. Sci., 139, 553 (1967)] using the following equation. [formula]
Dose ratio refers to the concentration of agonist required to elicit 50 percent of the maximal response ED50) in the presence of the antagonist divided by the ED50 in the absence of the antagonist.

Assay [1] relates to LTB4 induced cell aggregation (neutrophils). Kind of assay: LTB4 Induced Aggregation Assay (neutrophils). Conditions: Cavia porcellus, Neutrophil; for inhibition at 10 µM: drug concentration 10^-5 M; for inhibition at 1 µM: drug concentration 10^-6 M; for inhibition at 0.1 µM: drug concentration 10^-7 M. It is filed as cell-based, guinea pig. The method, then: Neutrophils were elicited by intraperitoneally injecting 20 ml of Dulbecco's calcium and magnesium deficient phosphate buffered saline (PBS) containing 2% oyster glycogen into each of two male Hartley guinea pigs. Eighteen hours later, cells accumulating in the peritoneal cavity were harvested by washing the peritoneum with approximately 100 ml of PBS containing 10 units/ml of heparin. The cells were centrifuged at 200 g for 8 min. and the supernatant fluid discarded. Erythrocytes present in the pellet were lyzed by vigorous agitation of the cells in 9 ml of ice-cold distilled water for approximately 30 seconds. Physiological osmolarity was restored by adding 1.5 ml of 0.6 M KCl. Twelve milliliters of PBS were added and the resuspended cells centrifuged at 200 g for 8 min. at 4°. The pellet was resuspended in 5 ml PBS. The cell concentration was determined and additional buffer added to make the concentration […]; cells per ml.
The aggregation assay was carried out by measuring the amount of LTB4 induced cell aggregation with a Payton single channel aggregometer, model 300B. The apparatus was calibrated by placing a cuvette containing the cell suspension in it and adjusting the zero knob so that the recorder pen rested at 1 mV. A cuvette containing 20% less cells was then inserted into the aggregometer and the output knob adjusted so that the recorder pen rested at 9 mV. With these settings an 8 mV change causes the recorder pen to move 200 mm. When conducting an assay, 0.5 ml of cell suspension (5×10^6 cells) was added to each cuvette. Five microliters of a solution of test compound were then added. Most compounds were initially dissolved in DMSO at 1×10^-2 M and then diluted appropriately with PBS so that the test compound concentration was 1×10^-5 to 1×10^-7 M and the test DMSO concentration was 0.1% or less. A few of the more water insoluble compounds were first dissolved in DMSO at 1 to 6×10^-3 M and then diluted appropriately with PBS. The test concentration of DMSO was never higher than 1%. After a 2 minute equilibration period of cells and test compound, 5 μl of a solution containing CaCl2 (100 mM) and MgCl2 (50 mM) were added. One minute later, 5 μ l of PBS containing LTB4 (3×10^-7 M) were added. The change occurring in the amount of light transmitted during the subsequent minute was measured. […] During a typical experiment, several measurements of the amount of aggregation induced by LTB4 were made and an average value determined. The effect of a test compound on this aggregation was determined by the following formula: [formula]

The target of assay [2] is T2, specific receptor on the membrane of human neutrophils (leukotriene B4) (Homo sapiens, UniProt Q15722).
T2 construct: Freshly-prepared buffy coat layers from two individuals were obtained from a local blood donor center; endogenous in cells; host or cells: intact human peripheral blood neutrophils from buffy coats of two donors
Kind of assay: Inhibition of Binding of ^3 H-LTB4 to Peripheral Human Neutrophils. Conditions: read-out: LTB4 Binding Inhibition. As to the method:
Cells used in the assay were isolated by standard techniques of centrifugation on Ficoll-Hypaque, dextran 70 sedimentation and hypotonic lysis. The following procedure was used. Freshly-prepared buffy coat layers from two individuals were obtained from a local blood donor center. The cells were mixed and diluted to 484 ml with phosphate buffered saline containing heparin (10 units/ml) and heat-inactivated calf serum (5%). This was divided into 20 ml aliquots and the aliquots layered on top of Ficoll-Paque (12 ml). The material was then centrifuged at 500 g for 40 minutes at room temperature. The resulting upper layer of platelets and mononuclear cells was discarded. The lower layer containing erythrocytes and neutrophils was retained. Buffer was added (1 ml per 4 ml of lower layer) and the suspension mixed. For each milliliter of this mixture, 0.33 ml of 6% Macrodex was added. After stirring, the cells were allowed to sediment for 1 hour at 37° C. The resulting erythrocyte pellet was discarded and the neutrophil enriched supernatant fluid centrifuged at 500 g for 10 minutes at 4° C. Erythrocytes still present in this cell pellet were lysed by incubating the cells with 5-8 ml ice-cold distilled water for 30-45 seconds. Subsequently, the volume was made up to 50 ml by addition of ice-cold buffer and the cells resuspended. The suspension was then centrifuged at 300 g for 10 minutes at 4° C. The cells were finally resuspended at a cell density of 2×10^7 cells/ml in the assay buffer This buffer consisted of Hanks' balanced salt solution and 0.1% ovalbumin (pH 7.3).
The amount of bound ^3 H-LTB4 was then measured and compared with the amount bound in the absence of test compound. The assay was carried out in microcentrifuge tubes by adding first 10 μl test compound dissolved in DMSO, followed by adding 20 μl ^3 H-LTB4 diluted in assay buffer, and finally adding 500 μl of the cell suspension. At the end of the 10 minutes incubation, 300 μl of a mixture of dibutyl and dinonyl phthalate (7:2) were added and the tubes centrifuged for 2 minutes in a microcentrifuge. The radioactivity bound to the cell pellet was measured by scintillation spectroscopy. Appropriate corrections for nonspecific bonding of ^3 H-LTB4 were made.

Where [3] appears, read: drug concentration 10^-5 M, 0.1-0.2 nM ^3 H-LTB4, 10 minutes at 4° C.
The mark [4] stands for this setting: drug concentration 10^-6 M, 0.1-0.2 nM ^3 H-LTB4, 10 minutes at 4° C.
[5] abbreviates: drug concentration 10^-7 M, 0.1-0.2 nM ^3 H-LTB4, 10 minutes at 4° C.

SMILES strings stand for the structures. Like-named read-outs stand apart in the source and are kept apart here.

By Kb is commonly meant the affinity of an antagonist, worked out from how it opposes an agonist. Broadly, the inhibition is the drop in the measured response relative to a control, in per cent.

T2 sequence (Q15722 whole entry): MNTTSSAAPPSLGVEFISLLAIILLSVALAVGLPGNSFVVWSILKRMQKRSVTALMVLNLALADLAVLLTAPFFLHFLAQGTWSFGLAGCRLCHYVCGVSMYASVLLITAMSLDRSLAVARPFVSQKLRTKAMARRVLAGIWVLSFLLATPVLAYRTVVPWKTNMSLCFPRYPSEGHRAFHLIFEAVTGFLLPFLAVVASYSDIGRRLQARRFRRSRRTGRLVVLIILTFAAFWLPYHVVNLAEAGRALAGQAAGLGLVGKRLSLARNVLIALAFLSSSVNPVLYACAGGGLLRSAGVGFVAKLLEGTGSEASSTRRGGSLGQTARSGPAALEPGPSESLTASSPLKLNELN

As for `CCCCCCCCCCOc1ccc(C(=O)c2cccc(C(=O)OCC)c2)cc1CCCC(=O)OCC` [Example 7, 2-(Decyloxy)-5-[3-(ethoxycarbonyl)benzoyl]benzenebutanoic acid, ethyl ester], the antagonist dissociation constant (Kb) on LTD4 receptors is 158 nM.

Turning to `CCCCCCCCCCOc1ccc(C(=O)c2cccc(C(=O)O)c2)cc1CCCC(=O)O` [Example 23, 5-(3-Carboxybenzoyl)-2-(decyloxy)benzenebutanoic acid], the inhibition at 10 µM in assay [1] turned out to be 92%; in assay [2] (setting [3]) it was 87%. In addition, the inhibition at 1 µM came out at 46% in assay [1] and 52% in assay [2] (setting [4]). The inhibition at 0.1 µM in assay [2] (setting [5]) stood at 4%.

Regarding `CCCCCCCCCCOc1ccc(C(=O)c2cccc(Cc3nnn[nH]3)c2)cc1CCC(=O)O` [Example 25, 2-(Decyloxy)-5-[3-(1H-tetrazol-5-ylmethyl)benzoyl]benzenepropanoic acid], at LTD4 receptors, the Kb is 631 nM.

Consider `CCCCCCCCCCOc1ccc(C(=O)Cc2ccccc2C(=O)O)cc1CCC(=O)O` [Example 34, 5-[(2-Carboxyphenyl)acetyl]-2-(decyloxy)benzenepropanoic acid], for which, on LTD4 receptors, the Kb is 1910 nM.

For the compound `CCCCCCCCCCOc1ccc(C(O)c2cccc(C(=O)O)c2)cc1CCC(=O)O` (stereo not drawn) [Example 46, 5-[(3--Carboxyphenyl)hydroxymethyl]-2-(decyloxy)benzenepropanoic acid], the results for the inhibition at 1 µM in assay [1] and in assay [2] (setting [4]) were 73% and 55%, respectively. Further, the figures for the inhibition at 0.1 µM in assay [1] and in assay [2] (setting [5]) were 7% and 13%, respectively. In addition, in assay [2] (setting [3]), the inhibition at 10 µM came out at 91%.

On to `CCCCCCCCCCOc1ccc(C(O)c2ccc(C(=O)O)cc2)cc1CC(=O)O` (stereo not drawn) [Example 47, 5-[(4-Carboxyphenyl)hydroxymethyl]-2-(decyloxy)benzeneacetic acid], for which, in assay [1], the inhibition at 10 µM amounted to 80%, the inhibition at 1 µM was 50% and the inhibition at 0.1 µM worked out at 2%. Besides, the inhibition at 10 µM in assay [2] (setting [3]) amounted to 59%. The inhibition at 1 µM in assay [2] (setting [4]) stood at 2%.

As to `C=C(c1cccc(C(=O)O)c1)c1ccc(OCCCCCCCCCC)c(CCC(=O)O)c1` [Example 54, 5-[1-(3-Carboxyphenyl)ethenyl]-2-(decyloxy)benzenepropanoic acid], the results for the inhibition at 1 µM in assay [1] and in assay [2] (setting [4]) were 88% and 37%, respectively. The inhibition at 0.1 µM in assay [1] was 12%; in assay [2] (setting [5]), -3%. The inhibition at 10 µM in assay [2] (setting [3]) was determined as 71%.

For the compound `CCOC(=O)CCc1cc(C(=O)c2cccc(C(=O)OCC)c2)ccc1OCCCCCCc1ccc(Cl)cc1` [Example 66, 2-{[6-(4-Chlorophenyl)hexyl]oxy}-5-[3-(ethoxycarbonyl)benzoyl]benzenepropanoic acid, ethyl ester], on LTD4 receptors, the antagonist dissociation constant (Kb) is 575 nM.

Regarding `O=C(O)CCc1cc(C(=O)c2cccc(C(=O)O)c2)ccc1OCCCCCCc1ccccc1` [Example 75, 5-(3-Carboxybenzoyl)-2-[6-(phenylhexyl)-oxy]benzenepropanoic acid], the figures for the inhibition at 10 µM in assay [1] and in assay [2] were 93% and 97%, respectively. The inhibition at 1 µM in assay [1] was 69%; in assay [2] (setting [4]), 82%. Moreover, the inhibition at 0.1 µM was determined as 15% in assay [1] and 36% in assay [2] (setting [5]).

Take `COc1ccc(C=CCCCCOc2ccc(C(=O)c3cccc(C(=O)O)c3)cc2CCC(=O)O)cc1` [Example 79, 5-(3-Carboxybenzoyl)-2-{[6-(4-methoxyphenyl)-5-hexenyl]oxy}benzenepropanoic acid]: in assay [1], the inhibition at 10 µM worked out at 92%, the inhibition at 1 µM turned out to be 87% and the inhibition at 0.1 µM came out at 46%. In assay [2], the inhibition at 0.1 µM is 92%, the inhibition at 1 µM came to 97% and the inhibition at 10 µM turned out to be 100%.

With `O=C(O)CCc1cc(C(=O)c2cccc(C(=O)O)c2)ccc1OCCCCCCc1ccc(Cl)cc1` [Example 81, 2-{[6-(4-Chlorophenyl)hexyl]oxy}-5-(3-carboxybenzoyl)benzenepropanoic acid], the inhibition at 10 µM was 76% in assay [1] and 106% in assay [2] (setting [3]). Besides, the inhibition at 1 µM was determined as 63% in assay [1] and 91% in assay [2] (setting [4]). In addition, the inhibition at 0.1 µM in assay [1] came to 8%; in assay [2] (setting [5]), 42%.

Take `C[S+]([O-])c1ccc(C=CCCCCOc2ccc(C(=O)c3cccc(C(=O)O)c3)cc2CCC(=O)O)cc1` (stereo not drawn) [Example 90, 5-(3-Carboxybenzoyl)-2-{[6-(4-methylsulfinylphenyl)-5-hexenyl]oxy}benzenepropanoic acid]: the inhibition at 10 µM was 85% in assay [1] and 98% in assay [2] (setting [3]). Also, the inhibition at 1 µM in assay [1] is 79%; in assay [2] (setting [4]) it was 96%. Also, the figures for the inhibition at 0.1 µM in assay [1] and in assay [2] (setting [5]) were 9% and 90%, respectively.
